The results in this text go back to patent publication US20120021010A1, “ANTIPLATELET AGENT AND METHODS OF USING THE SAME” (University of Calcutta, priority 2010, published 2012).

The assay relates to platelets. Put plainly: ADP-induced platelet aggregation, chronolog optical aggregometry. It counts as cell-based, human. The conditions noted are these: platelets of patient treated with clopidogrel; inset of FIG. 3C. As to the method: In this example, platelet aggregation in the presence of SPIONs and various agonists was examined. The study was carried out using chronolog optical aggregometry.
FIGS. 2A and 2B respectively represent aggregometric results in presence of the agonists arachidonic acid (0.5 mM) and ADP (10 μM). Arachidonic acid is the main target for the antiplatelet drug aspirin and ADP is the main target for the antiplatelet drug clopidogrel. […] Thus, SPIONs cause no change in ADP- and arachidonic acid-induced aggregation of platelets from normal healthy individuals. The 85% to 95% aggregation increase in FIG. 2B can be ignored as the fractional increase is insignificant.

For `COC(=O)[C@H](c1ccccc1Cl)N1CCc2sccc2C1` [clopidogrel], the “ADP-induced platelet aggregation in a patient treated with clopidogrel” value is recorded as “ADP cannot induce aggregation”.
